# Reference: patent US20250136593A1, “DEGRADATION AGENT AND USE THEREOF” (HITGEN INC., priority 2021, published 2025)
# Key:
# MOLT-4 cells = assay: Inhibitory activity on MOLT4 cell proliferation by Cell Titer-Glo method; type: cell-based; details: Homo sapiens, 72 hours incubation, read-out: IC50 concentration for inhibiting MOLT-4 cells
# Experimental: Experimental Example 5, Evaluation Experiment of Inhibitory Activity of Compound on MOLT4 Cell Proliferation by Cell Titer-Glo Method
# RPMI medium modified (Hyclone), FBS (Corning), Dimethyl Sulfoxide, P/S, CellTiter-Gbo Luminescent Cell Viability Assay (Promega), MOLT-4 cell (ATCC).
# MOLT-4 cells were cultured in monolayer in vitro in an incubator containing 5% CO2 air at 37° C. The culture medium was RPMI 1640 with 10% FBS and 1% P/S. 15 μL of MOLT4 cells, containing 5×10^4 cells per ml, was inoculated to a 384-well plate (Corning, 3707), 750 cells/well, and incubated at 37° C. and 5% CO2 for 30 minutes. Then the compound that had been diluted in advance was added, with a total of 9 concentration points, and 2 parallel repetitions for each concentration point. The cell growing group without adding the compound was used as a negative control (maximum signal control), and the culture medium group was used as a blank control (minimum signal control). At the same time, it was ensured that the final DMSO content in each reaction well was 0.1%. The compound and the cells were incubated in a cell culture incubator at 37° C., 5% CO2 for 3 days (72 hours).
# The 384-well plate was taken out from the cell culture incubator and allowed to stand at room temperature, equilibrated for 20 to 30 minutes, and then 25 μl of Cell Titer-Glo detection reagent was added to each reaction well, lysed on a shaker for 2 minutes, incubated for 10 minutes, and BMG PHERAStar (Luminescence) was used for reading.
# The inhibition rate was calculated based on the luminescence signals: the average value of the negative control (maximum signal control) and the blank control (minimum signal control) was first calculated, then the inhibition rates of the compound at different concentrations for the cells were calculated as follows:
# The IC50 of the compound to inhibit cell activity was calculated by fitting with GraphPad Prism 6 using log(inhibitor) vs. response−Variable slope mode. The fitting equation was: Y=Bottom+(Top−Bottom)/(1+10^((LogIC50−X)*HillSlope)), wherein Y represented the inhibition rate and X represented the known compound concentration after Log.
# [1] = target: T1, BCL-XL protein in MOLT-4 cells (Homo sapiens, UniProt Q07817); assay: Degradation effect on BCL-XL protein in MOLT-4 cells by Western Blot; type: cell-based; details: 24 hours incubation, corrected by β-actin, read-out: DC50 concentration for BCL-XL protein degradation
# T1 construct: host or cells: MOLT-4
# T1 sequence (Q07817 whole entry): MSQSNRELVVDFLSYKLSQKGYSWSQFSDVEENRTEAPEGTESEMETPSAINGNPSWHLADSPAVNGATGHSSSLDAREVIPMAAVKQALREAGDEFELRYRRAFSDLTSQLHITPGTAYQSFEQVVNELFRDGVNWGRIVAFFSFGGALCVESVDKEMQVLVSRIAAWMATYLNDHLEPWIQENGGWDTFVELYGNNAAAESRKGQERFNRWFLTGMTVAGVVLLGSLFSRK
# Experimental: Experimental Example 6. Experiment to Evaluate Degradation Effect of Compound on BCL-XL Protein in MOLT-4 Cells by Western Blot Method
# SDS-PAGE gel (4-12%) (Genscript), PMSF 100 mM (Biyotime), Cocktail 100× (Biyotime), P/S, RPMI medium modified (Hyclone), FBS (Corning), 4× loading buffer (Thermo), Bcl-xL (54H6) Rabbit mAb (CST), Anti-rabbit IgG-HRP (CST), Anti-β-actin-HRP (Abcam), RIPA (Biyotime), Tween-20, MOLT-4 cell (ATCC), BCA Protein Assay Kit (TIANGEN), Immobilon Western Chemilunescent HRP Substrate (Millipore).
# 1) Incubation of compound and cells: 1 mL of 10^6 MOLT-4 cells (culture medium: 89% RPMI, 10% FBS, 1% P/S) was inoculated in a 6-well cell culture plate, the compound was subjected to gradient dilution with DMSO, then the compound diluted in DMSO in gradient was diluted again into the MOLT-4 medium, and 1 mL of the diluted compound was directly added to the 6-well plate with the cultured cells and incubated for 24 hours.
# 2) Protein extraction: After the compound and the cells were co-incubated for 24 hours, the cells were collected and placed in a 1.5 mL centrifuge tube, washed twice with ice-cold PBS, the supernatant was discarded, then 150 μL of RIPA lysis buffer was added and lysis was carried out on ice for 30 minutes; then the cell lysate was centrifuged in a low-temperature centrifuge at 15,000 rpm for 10 minutes, and the supernatant was collected; and BCA Protein Assay Kit was used to quantify the protein in the resulting cell lysate supernatant. 4× loading buffer was added to the cell lysate supernatant and incubated at 85° C. for 10 minutes to obtain a sample. The obtained sample was stored in −80° C. refrigerator for the use on the next day. 20 μg of the sample was taken to perform SDS-Page and transmembrane, 5% skim milk was used to block the membrane for 1 hour, and then Bcl-xL (54H6) rabbit mAb, Anti-rabbit IgG-HRP, Anti-β-actin-HRP were used for incubation. After incubation, Immobilon Western Chemiluminescent HRP Substrate was used for color development, and a gel analyzer was used for analysis.
# Analysis was performed with a grayscale analysis software, the amount of BCL-XL protein was corrected by the amount of β-actin, and then Graphpad 6 was used to calculate DC50.
# [2] = target: ternary complex between BCL-XL and CRBN-DDB1 (Homo sapiens, UniProt Q07817+Q96SW2); assay: Compound-induced formation of ternary complex between BCL-XL and CRBN-DDB1 by AlphaLISA; type: biochemical; set-up: key: the number of + indicates the intensity of AlphaLISA peak signal; ++: the number of + indicates the intensity of AlphaLISA peak signal; +++: the number of + indicates the intensity of AlphaLISA peak signal; ++++: the number of + indicates the intensity of AlphaLISA peak signal; +++++: the number of + indicates the intensity of AlphaLISA peak signal; details: peak signal; 60 nM Strep-BCL-XL and 60 nM His-CRBN/DDB1
# Sequence of ternary complex between BCL-XL and CRBN-DDB1 (Q07817 whole entry): as above
# Sequence of ternary complex between BCL-XL and CRBN-DDB1 (Q96SW2 whole entry): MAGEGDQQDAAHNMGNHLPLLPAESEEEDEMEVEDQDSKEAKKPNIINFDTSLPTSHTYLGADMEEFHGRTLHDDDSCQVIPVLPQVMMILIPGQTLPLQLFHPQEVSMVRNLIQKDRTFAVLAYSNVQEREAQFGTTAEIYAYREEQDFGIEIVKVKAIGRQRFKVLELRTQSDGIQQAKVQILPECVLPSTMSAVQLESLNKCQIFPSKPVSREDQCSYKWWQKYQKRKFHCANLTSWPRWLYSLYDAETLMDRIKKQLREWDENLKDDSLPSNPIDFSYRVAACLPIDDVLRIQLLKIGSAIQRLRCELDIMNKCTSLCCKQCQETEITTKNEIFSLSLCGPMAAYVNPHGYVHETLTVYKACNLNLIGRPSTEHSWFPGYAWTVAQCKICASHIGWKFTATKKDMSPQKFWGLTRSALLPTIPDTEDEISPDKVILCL
# Sequence of ternary complex between BCL-XL and CRBN-DDB1 (Q16531 whole entry partner): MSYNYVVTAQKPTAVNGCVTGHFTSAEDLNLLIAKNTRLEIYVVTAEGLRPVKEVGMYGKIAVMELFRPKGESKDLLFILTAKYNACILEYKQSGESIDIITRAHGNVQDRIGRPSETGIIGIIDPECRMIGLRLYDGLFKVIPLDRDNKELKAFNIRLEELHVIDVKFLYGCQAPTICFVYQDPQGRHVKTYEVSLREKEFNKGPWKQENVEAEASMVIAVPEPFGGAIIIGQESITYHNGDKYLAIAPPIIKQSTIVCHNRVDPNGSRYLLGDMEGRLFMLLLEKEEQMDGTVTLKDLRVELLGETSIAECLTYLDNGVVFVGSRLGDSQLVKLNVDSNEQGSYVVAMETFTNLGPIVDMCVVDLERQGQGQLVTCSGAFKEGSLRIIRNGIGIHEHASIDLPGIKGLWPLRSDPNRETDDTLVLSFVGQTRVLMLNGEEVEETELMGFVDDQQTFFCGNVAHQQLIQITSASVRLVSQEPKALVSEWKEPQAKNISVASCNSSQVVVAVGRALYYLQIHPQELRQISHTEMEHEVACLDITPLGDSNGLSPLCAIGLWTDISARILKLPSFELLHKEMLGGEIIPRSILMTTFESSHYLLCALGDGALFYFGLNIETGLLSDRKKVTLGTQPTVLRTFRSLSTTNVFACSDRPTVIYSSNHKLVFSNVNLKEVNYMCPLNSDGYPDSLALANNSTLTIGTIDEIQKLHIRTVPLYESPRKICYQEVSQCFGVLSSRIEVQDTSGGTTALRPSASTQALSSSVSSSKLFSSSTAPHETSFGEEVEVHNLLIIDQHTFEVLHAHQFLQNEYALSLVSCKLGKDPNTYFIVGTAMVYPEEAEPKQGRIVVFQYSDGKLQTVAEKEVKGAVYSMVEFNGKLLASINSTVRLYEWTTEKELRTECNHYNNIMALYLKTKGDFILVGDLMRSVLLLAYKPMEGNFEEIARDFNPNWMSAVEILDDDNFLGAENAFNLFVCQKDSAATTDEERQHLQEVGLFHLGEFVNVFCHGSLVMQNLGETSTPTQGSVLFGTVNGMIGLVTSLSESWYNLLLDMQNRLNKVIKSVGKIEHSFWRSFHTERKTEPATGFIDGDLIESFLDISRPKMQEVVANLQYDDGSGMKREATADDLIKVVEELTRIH
# Experimental: Experimental Example 4, Detection of Compound-Induced Formation of Ternary Complex Between BCL-XL and CRBN-DDB1 by AlphaLISA Method
# Na2HPO4(Sigma), NaH2PO4(Sigma), sodium chloride (Sigma), Tween-20 (Sigma), AlphaLISA®Nikel Chelate Acceptor beads (PerkinElmer), Strep-Tactin® Alpha Donor beads (PerkinElmer), Assay plate (Corning), Strep-BCl-XL (HitGen), His-CRBN/DDB1 (HitGen).
# DMSO was used to dissolve the dry powder of the test compound to obtain a 10.00 mM solution. The instrument ECHO was used to perform gradient dilution of the compound, which was then added to a 384-well reaction plate (Corning, Cat #3824), so that the final concentration of DMSO in the entire reaction system (10.0 μL) was less than 1%, and the same amount of DMSO was added and used as a control.
# Strep-BCl-XL and His-CRBN/DDB1 proteins were dissolved in buffer (10 mM NaH2PO4, 40 mM Na2HPO4, 150 mM sodium chloride, 0.03% Tween20, pH=7.4) to obtain a protein mixture of 60 nM Strep-BCL-XL and 60 nM His-CRBN/DDB1, the protein mixture (5ul/well) was added to the 384-well plate in which the compound had been added, and incubated at room temperature for 30 minutes, then 5 μl of a detection mixture with 50 μg/ml AlphaLISA®Nikel Chelate Acceptor beads and 50 μg/ml Strep-Tactin® Alpha Donor beads was added, and incubated at room temperature for 2 hours; and then a microplate reader was used to detect AlphaLISA signal.
# Fifth order polynomial or Sixth order polynomial in Polynomial of Graphpad 6.0 was used for data fitting.
Compound,IC50 (MOLT-4 cells),DC50 [1],AlphaLISA signal (PROTAC ternary complex signal intensity) [2]
O=C1CCC(N2C(=O)c3ccc(N4CCN(CC5CCN(CC#Cc6ccc(/C=C/c7ccc(C(=O)N8CCc9cnc(-c%10cnc%11ccccc%11c%10)nc9C8)cc7)cc6)CC5)CC4)cc3C2=O)C(=O)N1 (centres unmarked) [Compound F1B-2],50 to 100 µM,50 to 100 µM,+
CNc1nc(-c2cnc3ccccc3c2)nc2c1CCN(C(=O)c1ccc(/C=C/c3ccc(C#CCN4CCC(CN5CCN(c6cc7c(cc6F)C(=O)N(C6CCC(=O)NC6=O)C7=O)CC5)CC4)cc3)cc1)C2 (centres unmarked) [Compound F1B-3],50 to 100 µM,1 to 10 µM,–
O=C1CCC(N2Cc3cc(N4CCC(CN5CCN(CC#Cc6ccc(/C=C/c7ccc(C(=O)N8CCc9cnc(-c%10cnc%11ccccc%11c%10)nc9C8)cc7)cc6)CC5)CC4)ccc3C2=O)C(=O)N1 (centres unmarked) [Compound F2-4],1 to 10 µM,1 to 10 µM,++
CNc1nc(-c2cnc3ccccc3c2)nc2c1CCN(C(=O)c1ccc(/C=C/c3ccc(C#CCN4CCN(CC5CCN(c6ccc7c(c6)C(=O)N(C6CCC(=O)NC6=O)C7=O)CC5)CC4)cc3)cc1)C2 (centres unmarked) [Compound F2-11],50 to 100 µM,1 to 10 µM,–
CNc1nc(-c2cnc3ccccc3c2)nc2c1CCN(C(=O)c1ccc(/C=C/c3ccc(C#CCN4CCN(C(=O)CC(=O)N[C@H](C(=O)N5C[C@H](O)C[C@H]5C(=O)N[C@@H](C)c5ccc(-c6scnc6C)cc5)C(C)(C)C)CC4)cc3)cc1)C2 [Compound G2-1],> 200 µM,–,++
CNc1nc(-c2cnc3ccccc3c2)nc2c1CCN(C(=O)c1ccc(/C=C/c3ccc(C#CCN4CCN(CCC#Cc5cccc(N6CCC(=O)NC6=O)c5)CC4)cc3)cc1)C2 [Compound H1-1],< 1 µM,< 1 µM,–

# Other lines, results leading:
IC50 (MOLT-4 cells),DC50 [1],AlphaLISA signal (PROTAC ternary complex signal intensity) [2],Compound
< 1 µM,1 to 10 µM,–,CNc1nc(-c2cnc3ccccc3c2)nc2c1CCN(C(=O)c1ccc(/C=C/c3ccc(C#CCN4CCN(CCC#Cc5cccc(C6CCC(=O)NC6=O)c5)CC4)cc3)cc1)C2 (centres unmarked) [Compound D2-15]
1 to 10 µM,< 1 µM,–,CNc1nc(-c2cnc3ccccc3c2)nc2c1CCN(C(=O)c1ccc(/C=C/c3ccc(C#CCN4CCN(CC5CCN(c6ccc7c(c6)CN(C6CCC(=O)NC6=O)C7=O)CC5)CC4)cc3)cc1)C2 (centres unmarked) [Compound F2-8]
50 to 100 µM,1 to 10 µM,–,O=C1CCC(N2Cc3cc(N4CCC(CN5CCN(CC#Cc6ccc(OCC78CC(C(=O)N9CCc%10cnc(-c%11cnc%12ccccc%12c%11)nc%10C9)(C7)C8)cc6)CC5)CC4)ccc3C2=O)C(=O)N1 (centres unmarked) [Compound F2-9]
1 to 10 µM,< 1 µM,++,O=C1CCC(N2Cc3c(CN4CC5(C4)CN(C4CCN(CC#Cc6ccc(/C=C/c7ccc(C(=O)N8CCc9cnc(-c%10cnc%11ccccc%11c%10)nc9C8)cc7)cc6)CC4)C5)cccc3C2=O)C(=O)N1 (centres unmarked) [Compound F3B-3]
